Reference: patent publication US4746349A, “Method and compositions for suppressing the nitrification of ammonium in plant growth medium” (American Cyanamid Company, priority 1986, dated 1988)
Structures can show the parent of a compound that is named as a salt.

Key:
[1] = tested on: Nitrosomonas spp.; assay: Nitrification of ammonium in soil incubated at 25° C. (ammonium recovery, nitrate accumulation); settings: soil 25° C.; for Concentration of nitrate nitrogen / Recovery of Ammonium Nitrogen: 200 ppm N
Experimental: In these evaluations, one hundred grams (100 g) of oven dry, silt loam field soil with low residual nitrogen is added to a 6×12 cm screw-capped glass jar for each sampling date to provide an optimum environment for nitrification.
Two replicates of each treatment-sampling date are established. The soil is adjusted to 50% water saturation with an aqueous solution of ammonium sulfate at 200 ppm N and the chemical to be tested as a nitrification inhibitor at rates of from 0.10 to 0.50 ppm.
Incubation is at either 25° C. or 38° C. for 0, 1, 2, 4, 7, 9, 12, 16 or 20 weeks. Inorganic N is extracted by adding 2M KCl (10:1 v/w) and shaking for one hour, allowing settling for fifteen minutes. A 10 ml aliquot from the supernatant is assayed for ammonium, nitrite and nitrate by standard steam distillation methods (AOAC, pp. 653-655). Nitrapyrin (0.5 ppm) is used as a nitrification inhibitor for comparison. Benzyl alcohol, acetone, and a non-N amended soil are run as controls and as a check on mineralization.
Nitrification: Ammonium recovery and nitrate accumulation are indicative of nitrification, and data obtained with test compounds are reported in Tables I and II.

[2] = tested on: Nitrobacter spp.; assay: Nitrite nitrogen in ammonium amended soil incubated at 25° C.; settings: soil 25° C., 200 ppm N
Experimental: Determination of nitrite nitrogen and nitrate nitrogen in soil prepared in Example 1 above, which is amended with 200 ppm of nitrogen as aqueous ammonium sulfate, […], is determined using the nitrite and nitrate analysis of the American Organization of Analytical Chemists (AOAC pp. 653-655).

With CC[C@@H](C(=O)[C@@H](C)[C@@H](O)[C@H](C)[C@@H]1O[C@@H]([C@@H](CC)C(=O)O)CC[C@@H]1C)[C@H]1O[C@]2(C=C[C@@H](O)[C@]3(CC[C@@](C)([C@H]4CC[C@](O)(CC)[C@H](C)O4)O3)O2)[C@H](C)C[C@@H]1C [Salinomycin monosodium salt, Salinomycin] the “Concentration of nitrate nitrogen” value ([1]; 0.10 ppm, week 0) was 18 PPM, the “Recovery of Ammonium Nitrogen” value ([1]; 0.10 ppm, week 0) was 194 PPM and the “Concentration of nitrate nitrogen” value ([1]; 0.10 ppm, week 1) was 20 PPM. The “Recovery of Ammonium Nitrogen” value ([1]; 0.10 ppm, week 1) was 171 PPM, the “Concentration of nitrate nitrogen” value ([1]; 0.10 ppm, week 2) was 20 PPM and the “Recovery of Ammonium Nitrogen” value ([1]; 0.10 ppm, week 2) was 183 PPM. For the same compound, the “Concentration of nitrate nitrogen” value ([1]; 0.10 ppm, week 4) was 26 PPM, the “Recovery of Ammonium Nitrogen” value ([1]; 0.10 ppm, week 4) was 184 PPM and the “Concentration of nitrate nitrogen” value ([1]; 0.10 ppm, week 7) was 27 PPM. The “Recovery of Ammonium Nitrogen” value ([1]; 0.10 ppm, week 7) was 136 PPM, the “Concentration of nitrate nitrogen” value ([1]; 0.10 ppm, week 9) was 201 PPM and the “Recovery of Ammonium Nitrogen” value ([1]; 0.10 ppm, week 9) was 3 PPM. For the same compound, the “Concentration of nitrate nitrogen” value ([1]; 0.10 ppm, week 12) was 219 PPM, the “Recovery of Ammonium Nitrogen” value ([1]; 0.10 ppm, week 12) was 10 PPM and the “Concentration of nitrate nitrogen” value ([1]; 0.10 ppm, week 16) was 233 PPM. For the same compound, the “Recovery of Ammonium Nitrogen” value ([1]; 0.10 ppm, week 16) was 5 PPM, the “Recovery of Ammonium Nitrogen” value ([1]; 0.10 ppm, week 20) was 0 PPM and the “Specific inhibition of nitrification through activity against Nitrosomonas spp., in words” value ([1]; 0.1 to 0.5 ppm) was “appear to specifically inhibit nitrification through activity against Nitrosomonas spp”. For the same compound, the “Concentration of nitrate nitrogen” value ([1]; 0.25 ppm, week 0) was 19 PPM, the “Recovery of Ammonium Nitrogen” value ([1]; 0.25 ppm, week 0) was 193 PPM and the “Concentration of nitrate nitrogen” value ([1]; 0.25 ppm, week 1) was 23 PPM. The “Recovery of Ammonium Nitrogen” value ([1]; 0.25 ppm, week 1) was 176 PPM, the “Concentration of nitrate nitrogen” value ([1]; 0.25 ppm, week 2) was 22 PPM and the “Recovery of Ammonium Nitrogen” value ([1]; 0.25 ppm, week 2) was 189 PPM. For the same compound, the “Concentration of nitrate nitrogen” value ([1]; 0.25 ppm, week 4) was 23 PPM, the “Recovery of Ammonium Nitrogen” value ([1]; 0.25 ppm, week 4) was 185 PPM and the “Concentration of nitrate nitrogen” value ([1]; 0.25 ppm, week 7) was 45 PPM. For the same compound, the “Recovery of Ammonium Nitrogen” value ([1]; 0.25 ppm, week 7) was 167 PPM, the “Concentration of nitrate nitrogen” value ([1]; 0.25 ppm, week 9) was 44 PPM and the “Recovery of Ammonium Nitrogen” value ([1]; 0.25 ppm, week 9) was 171 PPM. The “Concentration of nitrate nitrogen” value ([1]; 0.25 ppm, week 12) was 57 PPM, the “Recovery of Ammonium Nitrogen” value ([1]; 0.25 ppm, week 12) was 168 PPM and the “Concentration of nitrate nitrogen” value ([1]; 0.25 ppm, week 16) was 121 PPM. For the same compound, the “Recovery of Ammonium Nitrogen” value ([1]; 0.25 ppm, week 16) was 111 PPM, the “Concentration of nitrate nitrogen” value ([1]; 0.25 ppm, week 20) was 187 PPM and the “Recovery of Ammonium Nitrogen” value ([1]; 0.25 ppm, week 20) was 4 PPM. The “Concentration of nitrate nitrogen” value ([1]; 0.50 ppm, week 0) was 19 PPM, the “Recovery of Ammonium Nitrogen” value ([1]; 0.50 ppm, week 0) was 194 PPM and the “Concentration of nitrate nitrogen” value ([1]; 0.50 ppm, week 1) was 22 PPM. For the same compound, the “Recovery of Ammonium Nitrogen” value ([1]; 0.50 ppm, week 1) was 167 PPM, the “Concentration of nitrate nitrogen” value ([1]; 0.50 ppm, week 2) was 21 PPM and the “Recovery of Ammonium Nitrogen” value ([1]; 0.50 ppm, week 2) was 185 PPM. For the same compound, the “Concentration of nitrate nitrogen” value ([1]; 0.50 ppm, week 4) was 18 PPM, the “Recovery of Ammonium Nitrogen” value ([1]; 0.50 ppm, week 4) was 170 PPM and the “Concentration of nitrate nitrogen” value ([1]; 0.50 ppm, week 7) was 18 PPM. For the same compound, the “Recovery of Ammonium Nitrogen” value ([1]; 0.50 ppm, week 7) was 197 PPM, the “Concentration of nitrate nitrogen” value ([1]; 0.50 ppm, week 9) was 26 PPM and the “Recovery of Ammonium Nitrogen” value ([1]; 0.50 ppm, week 9) was 196 PPM. The “Concentration of nitrate nitrogen” value ([1]; 0.50 ppm, week 12) was 39 PPM, the “Recovery of Ammonium Nitrogen” value ([1]; 0.50 ppm, week 12) was 191 PPM and the “Concentration of nitrate nitrogen” value ([1]; 0.50 ppm, week 16) was 28 PPM. For the same compound, the “Recovery of Ammonium Nitrogen” value ([1]; 0.50 ppm, week 16) was 205 PPM, the “Concentration of nitrate nitrogen” value ([1]; 0.50 ppm, week 20) was 45 PPM and the “Recovery of Ammonium Nitrogen” value ([1]; 0.50 ppm, week 20) was 176 PPM. For the same compound, the “Effectiveness as nitrification inhibitor, in words” value ([1]; 20 weeks study) was “second most effective inhibitor”, the “Concentration of nitrite nitrogen” value ([2]; 0.10 ppm, week 0) was 7 ppm and the “Concentration of nitrite nitrogen” value ([2]; 0.10 ppm, week 1) was 5 ppm. The “Concentration of nitrite nitrogen” value ([2]; 0.10 ppm, week 2) was 7 ppm, the “Concentration of nitrite nitrogen” value ([2]; 0.10 ppm, week 4) was 6 ppm and the “Concentration of nitrite nitrogen” value ([2]; 0.10 ppm, week 7) was -4 ppm. The “Concentration of nitrite nitrogen” value ([2]; 0.10 ppm, week 9) was 25 ppm, the “Concentration of nitrite nitrogen” value ([2]; 0.10 ppm, week 12) was 7 ppm and the “Concentration of nitrite nitrogen” value ([2]; 0.10 ppm, week 16) was 7 ppm. The “Concentration of nitrite nitrogen” value ([2]; 0.10 ppm, week 20) was 11 ppm, the “Concentration of nitrite nitrogen” value ([2]; 0.25 ppm, week 0) was 8 ppm and the “Concentration of nitrite nitrogen” value ([2]; 0.25 ppm, week 1) was 5 ppm. For the same compound, the “Concentration of nitrite nitrogen” value ([2]; 0.25 ppm, week 2) was 3 ppm, the “Concentration of nitrite nitrogen” value ([2]; 0.25 ppm, week 4) was 7 ppm and the “Concentration of nitrite nitrogen” value ([2]; 0.25 ppm, week 7) was -1 ppm. The “Concentration of nitrite nitrogen” value ([2]; 0.25 ppm, week 9) was 7 ppm, the “Concentration of nitrite nitrogen” value ([2]; 0.25 ppm, week 12) was 9 ppm and the “Concentration of nitrite nitrogen” value ([2]; 0.25 ppm, week 16) was 2 ppm. For the same compound, the “Concentration of nitrite nitrogen” value ([2]; 0.25 ppm, week 20) was 47 ppm, the “Concentration of nitrite nitrogen” value ([2]; 0.50 ppm, week 0) was 9 ppm and the “Concentration of nitrite nitrogen” value ([2]; 0.50 ppm, week 1) was 3 ppm. The “Concentration of nitrite nitrogen” value ([2]; 0.50 ppm, week 2) was 3 ppm, the “Concentration of nitrite nitrogen” value ([2]; 0.50 ppm, week 4) was 14 ppm and the “Concentration of nitrite nitrogen” value ([2]; 0.50 ppm, week 7) was 4 ppm. The “Concentration of nitrite nitrogen” value ([2]; 0.50 ppm, week 9) was -1 ppm, the “Concentration of nitrite nitrogen” value ([2]; 0.50 ppm, week 12) was 1 ppm and the “Concentration of nitrite nitrogen” value ([2]; 0.50 ppm, week 16) was 8 ppm. For the same compound, the “Concentration of nitrite nitrogen” value ([2]; 0.50 ppm, week 20) was 14 ppm.
